# From US20220364184A1, “COMPOSITIONS AND METHODS FOR TREATMENT OF A POOR PROGNOSIS SUBTYPE OF COLORECTAL CANCER” (DANA-FARBER CANCER INSTITUTE, INC., priority 2019, published 2022)
# Entries after “also recorded” stand apart in the source; their conditions may differ.
# B1: β-catenin (other, UniProt P35222 2-781, looked up)
# chain: ATQADLMELDMAMEPDRKAAVSHWQQQSYLDSGIHSGATTTAPSLSGKGNPEEEDVDTSQVLYEWEQGFSQSFTQEQVADIDGQYAMTRAQRVRAAMFPETLDEGMQIPSTQFDAAHPTNVQRLAEPSQMLKHAVVNLINYQDDAELATRAIPELTKLLNDEDQVVVNKAAVMVHQLSKKEASRHAIMRSPQMVSAIVRTMQNTNDVETARCTAGTLHNLSHHREGLLAIFKSGGIPALVKMLGSPVDSVLFYAITTLHNLLLHQEGAKMAVRLAGGLQKMVALLNKTNVKFLAITTDCLQILAYGNQESKLIILASGGPQALVNIMRTYTYEKLLWTTSRVLKVLSVCSSNKPAIVEAGGMQALGLHLTDPSQRLVQNCLWTLRNLSDAATKQEGMEGLLGTLVQLLGSDDINVVTCAAGILSNLTCNNYKNKMMVCQVGGIEALVRTVLRAGDREDITEPAICALRHLTSRHQEAEMAQNAVRLHYGLPVVVKLLHPPSHWPLIKATVGLIRNLALCPANHAPLREQGAIPRLVQLLVRAHQDTQRRTSMGGTQQQFVEGVRMEEIVEGCTGALHILARDVHNRIVIRGLNTIPLFVQLLYSPIENIQRVAAGVLCELAQDKEAAEAIEAEGATAPLTELLHSRNEGVATYAAAVLFRMSEDKPQDYKKRLSVELTSSLFRTEPMAWNETADLGLDIGAQGEPLGYRQDDPSYRSFHSGGYGQDALGMDPMMEHEMGGHHPGADYPVDGLPDLGHAQDLMDGLPPGDSNQLAWFDTDL
# notes: Endogenous protein in cell lysates; co-IP with anti-β-catenin (9562L, Cell Signaling) or anti-BCL9 antibody; also called B-catenin
# How the values were obtained:
# [1] = tested on: RKO cells; assay: Live-cell calcium imaging of spontaneous calcium transients (GCaMP5); format: cell-based, human; details: for spontaneous calcium transients: FIG. 4C; for propagation of calcium transients: FIG. 5E
# Description: (§1) 2 mg/ml neomycin was added to the cell culture medium 48 hrs after transfection to generate cell lines with stable GCaMP5 expression and removed one week prior to the initiation of experiment. Calcium transients were captured by live-cell imaging using a confocal microscope. Time lapse imaging was setup so that an image was captured every 0.5 s for 30 minutes, with an exposure time of 0.5 s. Calcium measurements were normalized to background fluorescence and the relative change in calcium (F(t)) over time was calculated by the formula: […]
# where F0 was defined as the average intensity of the 20% lowest grey values in a region of interest (ROI), F was defined as the normalized grey values of ROI in time point t. Global synchronicity was calculated by cross correlation method in FluoroSNNAP (seas.upenn.edu/˜molneuro/fluorosnnap.html).
# [2] = tested on: RKO cells; assay: Wound healing (scratch) assay with calcium wave imaging; format: cell-based, human; details: for display of primary and secondary calcium waves after scratching: FIG. 19E-F, verapamil 500 nM
# Description: Wild-type or BCL9 knockout cells were grown in 6-well plates or Nunc™ Glass Bottom Dishes (150680, ThermoFisher®) for 24 hrs until cells reached 90% confluency. A 1 ml pipette tip was used to scratch the monolayer of cells across the center of each well. The cells were imaged at 0 and 24 hours after scratching. To investigate the effect of BCL9 on calcium waves (FIG. 5H), cells were cultured in glass-bottomed 96-well plates for 24 hrs until they reached 90% confluency. […] A 200 μl pipette tip was used to scratch the cell monolayer from the top left to the bottom right corner of the well. At various times after the scratch was made, cells were fixed with 4% paraformaldehyde for 15 minutes at room temperature. Immunofluorescence was subsequently used to identify the location of BCL9 (see immunofluorescence method section for more detail). The wound edge in the center of the well was defined as “adjacent” and the area in the top right corner was defined as “distance” (FIG. 4H).
# as §1, with “To trace the calcium transient in real time, GCaMP5G (#31788, Addgene®) was transfected into wild-type or BCL9 knockout RKO and Colo320 cell lines. 2” for “2”, “Time lapse imaging was setup so that an image was captured every 0.5 s for 30 minutes, with an exposure time of 0.5 s.” left out
# where F0 was defined as the average intensity of the 20% lowest grey values in a region of interest (ROI), F was defined as the normalized grey values of ROI in time point t. Global synchronicity was calculated by cross correlation method in FluoroSNNAP (seas.upenn.edu/˜molneuro/fluorosnnap.html). The frequency spectrum was calculated by fast Fourier transform (Uhlen, P. (2004). Sci. STKE 2004, p 115), the time difference between each sample is 0.5 s.
# [3] = tested on: RGS4, CACNA2D1, ADRB1 mRNA; assay: mRNA expression by RNA-seq / qRT-PCR; format: cell-based, human; details: both wild-type and BCL9 knockout RKO cells, qRT-PCR, FIG. 17A
# Description: RNA was extracted from wild type and BCL9 knockout RKO cells with or without Poly I:C treatment (1 μg/ml) and subsequently purified using the TURBO DNA-free™ Kit (AM1907, invitrogen) to remove any residual DNA. An RNA library was prepared using the ribosome RNA removing method and sequenced with a 150 bp paired-end protocol in the Center for Cancer Computational Biology at the Dana Farber Cancer Institute (PRJNA554110). After quality control (QC) analysis was performed using fastQC, the first 10 bases were trimmed for each read. STAR software was used to map the readings to the human genome (hg19) and duplicates were removed using Picard. HTSeq was used to evaluate the gene expression levels by the count number for each gene and were subsequently annotated using the Ensemble database. Gene differential analysis was then applied to the expression profiling table using R package edgeR. For further analysis, the difference in exon usage between different conditions was calculated and R package DEXSeq was used to find differences between them.
# [4] = tested on: RKO cells; assay: In vivo mouse xenograft model (RKO-luciferase, intraperitoneal)
# Description: A total of 4×10^6 wild-type or BCL9 knockout RKO cells stably transduced with a reporter expressing Luciferase were injected intraperitoneally into CB17.Cg-PrkdcscidLystbg-J/Crl (Beige) mice (n=7 per group), and tumor burden was monitored by whole-body imaging using Xenogen system every week for 4 weeks, starting one day after injection of cells. After last imaging, all mice were euthanized and all tumor nodules identified in the peritoneal cavity were dissected and processed for histological and immunohistochemical analysis. To quantify β-catenin and Ki-67 stains serial consecutive sections were scanned using Vectra 2 Intelligent Slide Analysis system; percentage of positive cells (Ki-67, CD163, CD31, or αSMA) or areas (β-catenin) were assessed using inform Cell Analysis software (PerkinElmer®). P-values were calculated using unpaired Student's t-test. Propranolol hydrochloride (Millapore-Sigma®) was added to the drinking water at a concentration of 0.5 g/L on the injection day. Drug solution was renewed every 2 days.
# TMA sections (from Oncology Pathology, Dana Farber Cancer Institute) were pre-heated at 65 degrees for 20 mins and then deparaffined by performing the following washing steps: xylene 3×5 mins, 100% ethanol 5 mins, 95% ethanol 5 mins, 75% ethanol 5 mins, 50% ethanol 5 mins, 25% ethanol 5 mins, and rinsed by cold water. Sections were subsequently heated in a microwave with antigen retrieval buffer (10 mM Tris Base, 1 mM EDTA Solution, 0.05% Tween 20, pH 9.0). Sections were washed twice with TBS plus 0.5% Triton X-100 (v/v) and blocked with 5% BSA for 1 hr at room temperature. Sections were incubated overnight with the following antibodies at 4 degrees: BCL9 (ab37305, Abcam®), FAP (AF3715, R&D), β-catenin (610154, BD Transduction Laboratories), SYP (PA0299, Lecia), PDGFB (ab23914, Abcam®), C3 (HPA003563, Millapore-Sigma®), RGS4 (sc-398348, Santa Cruz®), CD163 (182422, Abcam®), CD31 (77699, Cell Signaling®), αSMA (19245, Cell Signaling®), or Axin2 (#2151, Cell Signaling®). The sections were washed three times before incubation with secondary antibody for 2 hours at room temperature. The sections were then washed three times before signal amplification with HRP polymer or fluorescence. ImageJ2 software was used to carry out semi-quantitative analysis of the staining intensities, which ranged from 0 (negative) to 3 (strong staining). Subsequently the H-score was calculated using the following formula;
# [5] = tested on: RKO, Colo320, SW620, LS174T, DLD-1 cells; assay: Cell viability assay of CRC cell lines; details: Colo320, and SW620 more than LS174T or DLD-1 cells, increased concentrations, FIG. 20C
# [6] = target: T1, B-cell lymphoma 9 (BCL9) (human, UniProt O00512 1-1426); assay: co-IP with anti-β-catenin antibody, untreated and poly I:C treated Colo320 cells
# T1 construct: Endogenous protein in nuclear lysates of human CRC cell lines (RKO, Colo320, SW620, LS174T, DLD-1)
# T1 sequence: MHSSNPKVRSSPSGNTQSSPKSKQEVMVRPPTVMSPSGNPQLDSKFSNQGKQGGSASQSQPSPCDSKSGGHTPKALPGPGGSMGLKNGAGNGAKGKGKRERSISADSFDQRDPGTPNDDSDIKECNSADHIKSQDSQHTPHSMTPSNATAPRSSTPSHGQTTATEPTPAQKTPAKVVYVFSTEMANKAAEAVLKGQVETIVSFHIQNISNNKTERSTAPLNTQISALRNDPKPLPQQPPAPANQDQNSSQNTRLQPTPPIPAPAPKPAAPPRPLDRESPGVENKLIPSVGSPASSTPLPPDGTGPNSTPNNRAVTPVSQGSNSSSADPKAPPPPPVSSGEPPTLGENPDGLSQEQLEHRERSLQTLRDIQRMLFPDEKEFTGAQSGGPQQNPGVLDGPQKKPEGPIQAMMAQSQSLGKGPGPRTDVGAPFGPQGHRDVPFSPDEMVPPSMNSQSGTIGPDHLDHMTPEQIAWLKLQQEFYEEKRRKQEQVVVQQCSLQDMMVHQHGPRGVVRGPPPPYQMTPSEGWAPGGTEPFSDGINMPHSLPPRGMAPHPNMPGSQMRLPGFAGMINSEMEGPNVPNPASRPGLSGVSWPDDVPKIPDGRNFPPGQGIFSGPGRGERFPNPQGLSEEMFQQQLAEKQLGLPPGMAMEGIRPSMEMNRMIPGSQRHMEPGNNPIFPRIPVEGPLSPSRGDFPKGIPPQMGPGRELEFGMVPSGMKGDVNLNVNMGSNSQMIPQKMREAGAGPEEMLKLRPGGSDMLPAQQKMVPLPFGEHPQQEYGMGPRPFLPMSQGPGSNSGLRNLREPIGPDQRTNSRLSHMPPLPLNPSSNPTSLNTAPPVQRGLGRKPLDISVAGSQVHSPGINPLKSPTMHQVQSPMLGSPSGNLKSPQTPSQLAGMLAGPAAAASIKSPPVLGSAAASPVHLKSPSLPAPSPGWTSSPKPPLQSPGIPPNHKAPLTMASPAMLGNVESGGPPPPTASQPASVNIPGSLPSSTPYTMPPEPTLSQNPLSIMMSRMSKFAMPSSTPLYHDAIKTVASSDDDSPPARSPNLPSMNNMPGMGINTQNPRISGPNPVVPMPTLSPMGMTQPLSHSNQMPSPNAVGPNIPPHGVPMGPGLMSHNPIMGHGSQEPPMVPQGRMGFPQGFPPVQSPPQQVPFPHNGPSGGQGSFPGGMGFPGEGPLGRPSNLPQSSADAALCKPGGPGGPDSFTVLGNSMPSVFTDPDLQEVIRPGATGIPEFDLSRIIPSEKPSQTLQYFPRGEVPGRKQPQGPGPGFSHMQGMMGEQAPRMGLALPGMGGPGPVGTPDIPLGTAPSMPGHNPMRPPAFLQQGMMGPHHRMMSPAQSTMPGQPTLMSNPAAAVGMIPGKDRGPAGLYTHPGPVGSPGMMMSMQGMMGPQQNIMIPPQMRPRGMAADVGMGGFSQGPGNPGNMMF
molecule,measurement,setting,value
"O=C(O)CN(CCN(CC(=O)O)CC(=O)O)CC(=O)O [EDTA, ethylene diamine tetra-acetic acid]",spontaneous calcium transients,[1]; RKO cells,disappeared
same,display of primary and secondary calcium waves after scratching,[2],disappeared; also recorded: blocked
CC(C)(C)NCC(O)c1cc(O)cc(O)c1 (stereo not drawn) [Terbutaline],propagation of calcium transients,[1]; BCL9 knockout RKO cells,not
same,propagation of calcium transients,[1]; wild-type RKO cells,induced
NCCc1ccc(O)c(O)c1 [dopamine],expression of RGS4 and CACNA2D1 mRNAs,[3],increased
"CC(C)NCC(O)COc1cccc2ccccc12 (stereo not drawn) [propranolol, 2-propanol, 1-[(1-methylethyl)amino]-3-(1-naphthalenyloxy)]","amplitude, frequency, and synchronicity of spontaneous calcium waves","[1]; RKO cells, FIG. 20B",reduced
same,calcium transient activation after scratching,[2]; FIG. 5F,inhibited calcium transients only in a subset of cells; also recorded: very few of them were activated
same,number of endothelial cells within tumor microenvironment (CD31),"[4]; RKO xenograft, FIG. 6H-I",marked reduction
same,number of mouse derived M2 macrophages within tumor microenvironment (CD163),"[4]; RKO xenograft, FIG. 6H-I",marked reduction
same,number of myofibroblast cells within tumor microenvironment (αSMA),"[4]; RKO xenograft, FIG. 6H-I",not
same,expression of Axin2 in xenograft tumors,[4]; control vs treated groups,did not display differences
same,mice that had died with extensive tumor burden,"[4]; three weeks after RKO cell injection, 0.5 g/L in drinking water, n=7",none
same,tumor burden (whole-body imaging),"[4]; three weeks post tumor injection, 0.5 g/L in drinking water",disappeared in most
same,viability of CRC cell lines,[5],significantly reduced
"COc1ccc(CCN(C)CCCC(C#N)(c2ccc(OC)c(OC)c2)C(C)C)cc1OC (stereo not drawn) [verapamil, Benzeneacetonitrile, α-[3-[[2-(3,4-dimethoxyphenyl)ethyl]methylamino]propyl]-3,4-dimethoxy-α-(1-methylethyl)]",spontaneous calcium transients,[1]; RKO cells,disappeared
same,display of primary and secondary calcium waves after scratching,[2],disappeared; also recorded: blocked
same,viability of CRC cell lines,[5],significantly reduced
B1,binding result,[6],binds
